{"source": "patent US5318971A", "about": "“3-Substituted-1-aryl-2(1H)-quinolones useful as anti-allergy and anti-inflammatory agents” (Schering Corporation, priority 1991, dated 1994)", "key": {"rat pleural cavity": {"test_system": "rat pleural cavity", "assay": "Reverse Passive Arthus Pleurisy Reaction (RPAPR), pleural exudate cells and fluid", "type": "in vivo", "details": "po; for inhibition in vivo at 25 mg/kg: 25 mg/kg p.o.; for inhibition in vivo at 5 mg/kg: 5 mg/kg p.o.; for inhibition in vivo at 10 mg/kg: 10 mg/kg p.o.", "experimental": "(§1) RPAPR was produced by a modification of the Yamamoto et al. method (Agents and Actions 5: 374-377, 1975). Thirty (30) minutes prior to lightly anesthesizing rats with ether and then sensitizing them by injecting the animals i.v. with 0.33 mg of bovine serum albumin (BSA) dissolved in 0.2 ml sterile saline, a test compound was administered per os (p.o.) as indicated in Table 1. Thirty minutes later, the rats were again lightly anesthetized and challenged intrapleurally with a rabbit anti-BSA antibody (Organon), containing 1.2 mg antibody protein, dissolved in 0.2 ml sterile saline. Four hours after challenge the rats were sacrificed by CO2 inhalation, their pleural cavities exposed and the exudate harvested. The total volumes of each exudate was recorded and the total number of leukocytes determined using a Coulter Counter ZM."}, "LTE4 (Leukotriene E4)": {"test_system": "LTE4 (Leukotriene E4)", "assay": "Reverse Passive Arthus Pleurisy Reaction (RPAPR), LTE4 in pleural exudate", "type": "in vivo", "details": "rat, 25 mg/kg p.o.; radioimmunoassay of exudate", "experimental": "as §1\n(§2) The exudate were then centrifuged and the supernatants decanted. Four volumes of cold 95% acetone was added for each volume of exudate. One half hour later the samples were again centrifuged for 10 minutes. Immediately after, 5 ml of the supernatant was removed and dried under nitrogen. These samples were kept in a freezer until LTE4 and TxB2 were determined using a radioimmune assay kit from Amersham.\nLTE4 = Leukotriene E4 a measure of lipoxygenase (LO) derived\n(§3) mediators of inflammation."}, "TXB2 (Thromboxane B2)": {"test_system": "TXB2 (Thromboxane B2)", "assay": "Reverse Passive Arthus Pleurisy Reaction (RPAPR), TxB2 in pleural exudate", "type": "in vivo", "details": "rat, 25 mg/kg p.o.; radioimmunoassay of exudate", "experimental": "as §1, §2\nTXB2 = Thromboxane B2 a measure of cyclooxygenase (CO) derived\nas §3"}, "[1]": {"test_system": "SRS-A (leukotriene) release, guinea pig lung", "assay": "SRSA Release in vitro (leukotriene release from sensitized guinea pig lung fragments)", "type": "cell-based", "details": "Cavia porcellus, ovalbumin challenge, read-out: SRSA Release in vitro % l", "experimental": "First, kill sensitized guinea pigs by a blow to the head, remove the lungs and clean them of visible connective tissue, trachea and large blood vessels. Slice the lungs from individual animals into fragments approximately 1 mm in thickness using a Mcllwain tissue chopper and wash them with oxygenated Tyrode's buffer. Transfer weighted allquots (approximately 400 mg wet weight) of lung into vials containing 2 ml of fresh Tyrode's solution (containing 10 mM cysteine) and incubate in the presence or absence of test compound for 12 minutes at 37° C., challenge the tissues with 20 μg ovalbumin/ml (final concentration) and incubate for 15 minutes.\nTo measure leukotriene release, extract an aliquot of supernatant fluid with 4 volumes of 100% ethanol. After removal of the precipitated protein, dry the clear fluid under a stream of N2 gas. Measure the leukotriene content by a radioimmunoassay using [^3 H]LTC4 (leukotriene C4) and antiserum obtained from New England Nuclear. Calculate percent inhibition of leukotriene release by comparing for each lung the release in the presence of the test compound to that in the absence of test compound."}, "[2]": {"test_system": "antigen-induced SRS-A mediated bronchoconstriction", "assay": "Guinea Pig Bronchospasm (anaphylactic bronchospasm in sensitized guinea pigs)", "type": "in vivo", "details": "5 mg/kg p.o., ovalbumin aerosol challenge", "experimental": "The anti-allergy activity of the compounds of this invention is identified by tests which measure a compound's inhibition of anaphylactic bronchospasms in sensitized guinea pigs having antigen-induced SRS-A mediated bronchoconstriction. Allergic bronchospasms were measured in actively sensitized guinea pigs by a modification of the procedure of Konzett and Rossler, Arch. Expt. Pathol. Pharmakol., 194, pp. 71-74 (1940). Male Hartly guinea pigs were sensitized with 5 mg ovalbumin injected ip and 5 mg injected sc in 1 ml saline on day 1 and 5 mg ovalbumin injected ip on day 4. To measure anaphylactic bronchospasm, sensitized guinea pigs were fasted overnight and the following morning were anesthetized with 0.9 mL/kg ip dialurethane. The trachea and jugular vein were cannulated and the animals were ventilated by a Harvard rodent respirator. A side arm to the tracheal cannula was connected to a Harvard pressure transducer to obtain a continuous measure of intratracheal pressure. An increase in intratracheal pressure was taken as a measure of bronchoconstriction. Each guinea pig was injected i.v. with 1 mg/kg propranolol, 5 mg/kg indomethacin and 2 mg/kg mepyramine given together in a volume of 1 mL/kg. […] Bronchoconstriction was measured as the peak increase in intratracheal pressure occurring within 15 minutes after antigen challenge."}, "[3]": {"details": "Leukocyte, leukocytes in exudate 4 h after challenge, read-out: % Inhibition Cells"}, "[4]": {"details": "exudate volume 4 h after challenge, read-out: % Inhibition Fluid"}}, "note": "Like-named read-outs stand apart in the source and are kept apart here."}
{"smiles": "CC(=O)N1CCN(Cc2cc3ccccc3n(-c3ccccc3)c2=O)CC1", "note": "[Formula 59]", "values": [{"measurement": "inhibition in vivo at 25 mg/kg", "setting": "rat pleural cavity; [3]", "value": 68, "unit": "%"}, {"measurement": "inhibition in vivo at 25 mg/kg", "setting": "rat pleural cavity; [4]", "value": 68, "unit": "%"}]}
{"smiles": "CCc1nccn1Cc1cc2ccccc2n(-c2ccccc2)c1=O", "note": "[Formula 50]", "values": [{"measurement": "inhibition in vivo at 25 mg/kg", "setting": "rat pleural cavity; [3]", "value": "< 10", "unit": "%"}, {"measurement": "inhibition in vivo at 25 mg/kg", "setting": "rat pleural cavity; [4]", "value": "< 10", "unit": "%"}]}
{"smiles": "O=c1c(Cn2cncn2)cc2ccc(Cl)cc2n1-c1ccccc1", "note": "[Formula 55, 1-phenyl-7-chloro-3-(1H-1,2,4-triazol-1-ylmethyl)-2(1H)-quinolone]", "values": [{"measurement": "inhibition in vivo at 25 mg/kg", "setting": "rat pleural cavity; [3]", "value": "< 10", "unit": "%"}, {"measurement": "inhibition in vivo at 25 mg/kg", "setting": "rat pleural cavity; [4]", "value": "< 10", "unit": "%"}]}
{"smiles": "O=c1c(CCn2ccnc2)cc2ccccc2n1-c1ccccc1", "note": "[Formula 49]", "values": [{"measurement": "inhibition in vivo at 25 mg/kg", "setting": "rat pleural cavity; [3]", "value": 86, "unit": "%"}, {"measurement": "inhibition in vivo at 25 mg/kg", "setting": "rat pleural cavity; [4]", "value": 53, "unit": "%"}]}
{"smiles": "Cn1ccnc1SCc1cc2ccccc2n(-c2ccccc2)c1=O", "note": "[Formula 48, 1-Phenyl-3-(1-Methyl-1H-imidazol-2-ylthiomethyl)-2(1H)-quinolone]", "values": [{"measurement": "inhibition in vivo at 25 mg/kg", "setting": "rat pleural cavity; [3]", "value": 75, "unit": "%"}, {"measurement": "inhibition in vivo at 25 mg/kg", "setting": "rat pleural cavity; [4]", "value": 40, "unit": "%"}, {"measurement": "% Inhibition LTE4", "setting": "LTE4 (Leukotriene E4)", "value": 57, "unit": "%"}, {"measurement": "% Inhibition TXB2", "setting": "TXB2 (Thromboxane B2)", "value": 67, "unit": "%"}]}
{"smiles": "O=c1c(Cn2cncn2)cc2ccccc2n1Cc1ccccc1", "note": "[Formula 52]", "values": [{"measurement": "inhibition in vivo at 25 mg/kg", "setting": "rat pleural cavity; [3]", "value": 44, "unit": "%"}, {"measurement": "inhibition in vivo at 25 mg/kg", "setting": "rat pleural cavity; [4]", "value": 46, "unit": "%"}]}
{"smiles": "C[S+]([O-])Cc1cc2ccccc2n(Cc2ccccc2)c1=O", "note": "(stereo not shown) [Formula 51]", "values": [{"measurement": "inhibition in vivo at 25 mg/kg", "setting": "rat pleural cavity; [3]", "value": 22, "unit": "%"}, {"measurement": "inhibition in vivo at 25 mg/kg", "setting": "rat pleural cavity; [4]", "value": "< 10", "unit": "%"}]}
{"smiles": "O=c1c(Cn2cncn2)cc2ccccc2n1-c1cccc(Cl)c1", "note": "[Formula 56, (1-3-Chlorophenyl)-3-(1H-1,2,4-Triazol-1-ylmethyl)-2(1H)-Quinolone]", "values": [{"measurement": "inhibition in vivo at 5 mg/kg", "setting": "rat pleural cavity; [3]", "value": 56, "unit": "%"}, {"measurement": "inhibition in vivo at 5 mg/kg", "setting": "rat pleural cavity; [4]", "value": 63, "unit": "%"}]}
{"smiles": "CC(=O)NCc1cc2ccccc2n(-c2ccccc2)c1=O", "note": "[Formula 58]", "values": [{"measurement": "inhibition in vivo at 25 mg/kg", "setting": "rat pleural cavity; [3]", "value": 62, "unit": "%"}, {"measurement": "inhibition in vivo at 25 mg/kg", "setting": "rat pleural cavity; [4]", "value": 53, "unit": "%"}]}
{"smiles": "O=c1c(Cn2cnnn2)cc2ccccc2n1-c1ccccc1", "note": "[Formula 3]", "values": [{"measurement": "inhibition in vivo at 10 mg/kg", "setting": "rat pleural cavity; [3]", "value": 75, "unit": "%"}, {"measurement": "inhibition in vivo at 10 mg/kg", "setting": "rat pleural cavity; [4]", "value": 50, "unit": "%"}, {"measurement": "inhibition at 30 µM", "setting": "[1]", "value": 83, "unit": "%"}]}
{"smiles": "O=c1c(Cn2cccn2)cc2ccccc2n1-c1ccccc1", "note": "[Formula 57]", "values": [{"measurement": "inhibition in vivo at 25 mg/kg", "setting": "rat pleural cavity; [3]", "value": 20, "unit": "%"}, {"measurement": "inhibition in vivo at 25 mg/kg", "setting": "rat pleural cavity; [4]", "value": 19, "unit": "%"}]}
{"smiles": "O=c1c(Cn2cncn2)cc2ccccc2n1-c1ccc(Cl)cc1", "note": "[Formula 53]", "values": [{"measurement": "inhibition in vivo at 25 mg/kg", "setting": "rat pleural cavity; [3]", "value": "< 10", "unit": "%"}, {"measurement": "inhibition in vivo at 25 mg/kg", "setting": "rat pleural cavity; [4]", "value": 18, "unit": "%"}, {"measurement": "G.P. Bronchospasm % l", "setting": "[2]", "value": 18, "unit": "%"}, {"measurement": "inhibition at 30 µM", "setting": "[1]", "value": 76, "unit": "%"}]}
{"smiles": "O=c1c(Cn2cncn2)cc2cc(Br)ccc2n1-c1ccccc1", "note": "[Formula 54, 6-bromo-1-phenyl-3-(1H-1,2,4-triazol-1-ylmethyl)-2(1H)-quinolone]", "values": [{"measurement": "inhibition in vivo at 25 mg/kg", "setting": "rat pleural cavity; [3]", "value": "< 10", "unit": "%"}, {"measurement": "inhibition in vivo at 25 mg/kg", "setting": "rat pleural cavity; [4]", "value": "< 10", "unit": "%"}]}
{"smiles": "O=c1c(Cn2cncn2)cc2ccccc2n1-c1ccccc1", "note": "[Formula 2]", "values": [{"measurement": "inhibition in vivo at 5 mg/kg", "setting": "rat pleural cavity; [3]", "value": 64, "unit": "%"}, {"measurement": "inhibition in vivo at 5 mg/kg", "setting": "rat pleural cavity; [4]", "value": 42, "unit": "%"}, {"measurement": "inhibition at 30 µM", "setting": "[1]", "value": 83, "unit": "%"}]}
